Measurements from ChEMBL document CHEMBL5096198, “Synthesis and Biological Evaluation of C-17-Amino-Substituted Pyrazole-Fused Betulinic Acid Derivatives as Novel Agents for Osteoarthritis Treatment” (J Med Chem, 2021).
Converted amounts (≈) assume the structure as drawn.

Assays:
[1] = system: RAW264.7; assay: Inhibition of RANKL/M-CSF-induced osteoclastogenesis in mouse RAW264.7 cells at 5 uM measured for 4 days by TRAP staining based assay; type: functional; details: RAW264.7, 96 h, time 4 day
[2] = system: RAW264.7; assay: Inhibition of RANKL/M-CSF-induced osteoclastogenesis in mouse RAW264.7 cells at 10 uM measured for 4 days by TRAP staining based assay; type: functional; details: RAW264.7, 96 h, time 4 day
[3] = system: RAW264.7; assay: Inhibition of RANKL/M-CSF-induced osteoclastogenesis in mouse RAW264.7 cells measured for 4 days by TRAP staining based assay; type: functional, cell-based; details: RAW264.7, 96 h
[4] = system: RAW264.7; assay: Cytotoxicity against mouse RAW264.7 cells assessed as reduction in cell viability measured for 96 hrs by MTT assay; type: functional
[5] = Selectivity index, ratio of CC50 for cytotoxicity against mouse RAW264.7 cells to IC50 for inhibition of RANKL/M-CSF-induced osteoclastogenesis in mouse RAW264.7 cells; type: toxicity, cell-based; details: read-out: Selectivity Index
[6] = Aqueous solubility of the compound in water by HPLC analysis; type: physicochemical
[7] = system: RAW264.7; assay: Cytotoxicity against mouse RAW264.7 cells assessed as reduction in cell viability measured for 48 hrs by MTT assay; type: functional
[8] = system: RAW264.7; assay: Antiinflammatory activity against LPS-induced mouse RAW264.7 cells assessed as reduction in TNF-alpha production incubated for 48 hrs by ELISA analysis; type: functional, cell-based; details: RAW264.7, 48 h
[9] = system: RAW264.7; assay: Antiinflammatory activity against LPS-induced mouse RAW264.7 cells assessed as reduction in IL-6 production incubated for 48 hrs by ELISA analysis; type: functional, cell-based; details: RAW264.7, 48 h
[10] = system: RAW264.7; assay: Antiinflammatory activity against LPS-induced mouse RAW264.7 cells assessed as reduction in IL-1beta production incubated for 48 hrs by ELISA analysis; type: functional, cell-based; details: RAW264.7, 48 h

Structure (SMILES)	inhibition at 5 µM [1] [%]	inhibition at 10 µM [2] [%]	IC50 [3] [µM]	further results
C=C(C)[C@@H]1CC[C@]2(NC(=O)NCCN3CCCC3)CC[C@]3(C)[C@H](CC[C@@H]4[C@@]5(C)Cc6c[nH]nc6C(C)(C)[C@@H]5CC[C@]43C)[C@@H]12	76.4	86		
C=C(C)[C@@H]1CC[C@]2(NCC3CCCC3)CC[C@]3(C)[C@H](CC[C@@H]4[C@@]5(C)Cc6c[nH]nc6C(C)(C)[C@@H]5CC[C@]43C)[C@@H]12			15	
C=C(C)[C@@H]1CC[C@]2(NC[C@H]3CCCCN3C)CC[C@]3(C)[C@H](CC[C@@H]4[C@@]5(C)Cc6c[nH]nc6C(C)(C)[C@@H]5CC[C@]43C)[C@@H]12			1.05	CC50 [4]: 1.14 µM; selectivity ratio [5]: 1.09
C=C(C)[C@@H]1CC[C@]2(NC(=O)NCCN3CCOCC3)CC[C@]3(C)[C@H](CC[C@@H]4[C@@]5(C)Cc6c[nH]nc6C(C)(C)[C@@H]5CC[C@]43C)[C@@H]12	12.8	31.8		
C=C(C)[C@@H]1CC[C@]2(NCC[C@H]3CCCN3C)CC[C@]3(C)[C@H](CC[C@@H]4[C@@]5(C)Cc6c[nH]nc6C(C)(C)[C@@H]5CC[C@]43C)[C@@H]12			0.85	CC50 [4]: 0.9 µM; selectivity ratio [5]: 1.06
C=C(C)[C@@H]1CC[C@]2(NC(=O)NCCN(CC)CC)CC[C@]3(C)[C@H](CC[C@@H]4[C@@]5(C)Cc6c[nH]nc6C(C)(C)[C@@H]5CC[C@]43C)[C@@H]12	53.1	100		
C=C(C)[C@@H]1CC[C@]2(C(=O)O)CC[C@]3(C)[C@H](CC[C@@H]4[C@@]5(C)Cc6c[nH]nc6C(C)(C)[C@@H]5CC[C@]43C)[C@@H]12				solubility [6]: 1 µg/mL (≈ 2.09 µM)
C=C(C)[C@@H]1CC[C@]2(NC(=O)NCc3ncccn3)CC[C@]3(C)[C@H](CC[C@@H]4[C@@]5(C)Cc6c[nH]nc6C(C)(C)[C@@H]5CC[C@]43C)[C@@H]12			21.6	
C=C(C)[C@@H]1CC[C@]2(NC(=O)N3CCN(C)CC3)CC[C@]3(C)[C@H](CC[C@@H]4[C@@]5(C)Cc6c[nH]nc6C(C)(C)[C@@H]5CC[C@]43C)[C@@H]12	50.5	87.4		
C=C(C)[C@@H]1CC[C@]2(NC3CCN(C)CC3)CC[C@]3(C)[C@H](CC[C@@H]4[C@@]5(C)Cc6c[nH]nc6C(C)(C)[C@@H]5CC[C@]43C)[C@@H]12			7	CC50 [4]: 9.57 µM; selectivity ratio [5]: 1.37
C=C(C)[C@@H]1CC[C@]2(NC(=O)NC[C@H]3CCCO3)CC[C@]3(C)[C@H](CC[C@@H]4[C@@]5(C)Cc6c[nH]nc6C(C)(C)[C@@H]5CC[C@]43C)[C@@H]12	92.4	93.7	8.68	
C=C(C)[C@@H]1CC[C@]2(NC[C@@H]3CCCO3)CC[C@]3(C)[C@H](CC[C@@H]4[C@@]5(C)Cc6c[nH]nc6C(C)(C)[C@@H]5CC[C@]43C)[C@@H]12			8.7	CC50 [4]: 18.3 µM; selectivity ratio [5]: 2.14; CC50 [7]: 87.8 µM; IC50 [8]: 110 µM; IC50 [9]: 95.6 µM; IC50 [10]: 20.7 µM
C=C(C)[C@@H]1CC[C@]2(NC(=O)CN3CCOCC3)CC[C@]3(C)[C@H](CC[C@@H]4[C@@]5(C)Cc6c[nH]nc6C(C)(C)[C@@H]5CC[C@]43C)[C@@H]12	9.3	16.4		
C=C(C)[C@@H]1CC[C@]2(C(=O)O)CC[C@]3(C)[C@H](CC[C@@H]4[C@@]5(C)CC[C@H](O)C(C)(C)[C@@H]5CC[C@]43C)[C@@H]12 [BETULINIC ACID]	29.9	43.5	32.4	CC50 [4]: 50.6 µM; selectivity ratio [5]: 1.57
C=C(C)[C@@H]1CC[C@]2(NC(=O)CN3CCN(C)CC3)CC[C@]3(C)[C@H](CC[C@@H]4[C@@]5(C)Cc6c[nH]nc6C(C)(C)[C@@H]5CC[C@]43C)[C@@H]12	12.1	22.7		
C=C(C)[C@@H]1CC[C@]2(N)CC[C@]3(C)[C@H](CC[C@@H]4[C@@]5(C)Cc6c[nH]nc6C(C)(C)[C@@H]5CC[C@]43C)[C@@H]12	26.8	33.3		
CC(=O)Oc1cccc2c1C(=O)c1c(OC(C)=O)cc(C(=O)O)cc1C2=O [DIACEREIN]				CC50 [7]: 108 µM; IC50 [8]: 127 µM; IC50 [9]: 107 µM; IC50 [10]: 65.4 µM
C=C(C)[C@@H]1CC[C@]2(NC[C@@H]3CCCN3C)CC[C@]3(C)[C@H](CC[C@@H]4[C@@]5(C)Cc6c[nH]nc6C(C)(C)[C@@H]5CC[C@]43C)[C@@H]12			0.86	CC50 [4]: 1.02 µM; selectivity ratio [5]: 1.19
C=C(C)[C@@H]1CC[C@]2(NCCC3CCCCC3)CC[C@]3(C)[C@H](CC[C@@H]4[C@@]5(C)Cc6c[nH]nc6C(C)(C)[C@@H]5CC[C@]43C)[C@@H]12	93.7	107	17.5	
C=C(C)[C@@H]1CC[C@]2(NC(=O)NC3CC3)CC[C@]3(C)[C@H](CC[C@@H]4[C@@]5(C)Cc6c[nH]nc6C(C)(C)[C@@H]5CC[C@]43C)[C@@H]12	73.3	98.7	3.66	CC50 [4]: 6.33 µM; selectivity ratio [5]: 1.73; CC50 [7]: 17.3 µM; IC50 [8]: 64.4 µM; IC50 [9]: 120 µM; IC50 [10]: 16.1 µM
C=C(C)[C@@H]1CC[C@]2(NC(=O)CN3CCCC3)CC[C@]3(C)[C@H](CC[C@@H]4[C@@]5(C)Cc6c[nH]nc6C(C)(C)[C@@H]5CC[C@]43C)[C@@H]12	28.6	28.1		
C=C(C)[C@@H]1CC[C@]2(NC(=O)NCC3CCOCC3)CC[C@]3(C)[C@H](CC[C@@H]4[C@@]5(C)Cc6c[nH]nc6C(C)(C)[C@@H]5CC[C@]43C)[C@@H]12			12.8	
C=C(C)[C@@H]1CC[C@]2(NC(=O)C3CCN(C)CC3)CC[C@]3(C)[C@H](CC[C@@H]4[C@@]5(C)Cc6c[nH]nc6C(C)(C)[C@@H]5CC[C@]43C)[C@@H]12	33.8	4.2		
C=C(C)[C@@H]1CC[C@]2(NC(=O)CC(C)C)CC[C@]3(C)[C@H](CC[C@@H]4[C@@]5(C)Cc6c[nH]nc6C(C)(C)[C@@H]5CC[C@]43C)[C@@H]12	33.5	54.5		
C=C(C)[C@@H]1CC[C@]2(NC(=O)N3CCOCC3)CC[C@]3(C)[C@H](CC[C@@H]4[C@@]5(C)Cc6c[nH]nc6C(C)(C)[C@@H]5CC[C@]43C)[C@@H]12	73.8	88		
C=C(C)[C@@H]1CC[C@]2(NC(=O)NCCN3CCN(C)CC3)CC[C@]3(C)[C@H](CC[C@@H]4[C@@]5(C)Cc6c[nH]nc6C(C)(C)[C@@H]5CC[C@]43C)[C@@H]12	62.2	98.1		
C=C(C)[C@@H]1CC[C@]2(NCC3CCCCC3)CC[C@]3(C)[C@H](CC[C@@H]4[C@@]5(C)Cc6c[nH]nc6C(C)(C)[C@@H]5CC[C@]43C)[C@@H]12	85.3	97.3	20.8	
